In brackets after ≈: the same amount, converted by molar mass. Where two headings read alike, the source gives them in different places.
Key:
[1] = tested on: C. difficile; assay: In vitro antibacterial activity: MIC by broth microdilution; assay type: cell-based, Clostridium difficile; settings: Clostridioides difficile, anaerobic, tested range 0.008 to 8 μg/ml
Experimental: MICs (minimum inhibitory concentrations) were determined by the broth microdilution technique with 96-well microdilution plates. […] The plates were filled with 100 μl of reinforced clostridial medium (Oxoid; Unipath Ltd., Basingstoke, United Kingdom) per well containing the final antibiotic concentrations. The plates were thawed and preincubated for 3 hours in an anaerobic chamber (Thermal, USA) containing an atmosphere of 80% N2, 15% CO2, and 5% H2. The bacterial inocula were prepared by suspending growth from 48 hours cultures in reinforced clostridial medium. The final inoculum was approximately 1.0×10^5-6 CFU/well. The plates were incubated for 48 hours at 37° C. in the anaerobic chamber. The MIC was defined as the lowest antibiotic concentration that inhibited visible growth. Ciprofloxacin, vancomycin and metronidazole were used as a positive control.

[2] = strain C. difficile ATCC43255, 48 hours at 37° C., read-out: MIC against C. difficile ATCC43255
[3] = strain C. difficile ATCC70092, 48 hours at 37° C., read-out: MIC against C. difficile ATCC70092
[4] = strain C. difficile ATCC7000057, 48 hours at 37° C., read-out: MIC against C. difficile ATCC7000057
[5] = strain C. difficile IQCC23903, 48 hours at 37° C., read-out: MIC against C. difficile IQCC23903

| Structure (SMILES) | MIC [1, 2] [µg/mL] | MIC [1, 3] [µg/mL] | MIC [1, 4] [µg/mL] | MIC [1, 5] [µg/mL] | melting point [°C] |
| --- | --- | --- | --- | --- | --- |
| Cc1c(-c2cc(Cl)c3nccn3c2)c(F)cc2c(=O)c(C(=O)O)cn(C3CC3)c12 [Compound 3-11] | 0.008 to 0.032 (≈ 0.0194 to 0.0777 µM) | 0.008 to 0.032 (≈ 0.0194 to 0.0777 µM) | 0.016 to 0.032 (≈ 0.0389 to 0.0777 µM) | 0.008 to 0.063 (≈ 0.0194 to 0.153 µM) | 307 to 311 |
| Cc1c(-c2cnc3[nH]c(=O)ccc3c2)c(F)cc2c(=O)c(C(=O)O)cn(C3CC3)c12 [Compound 1-2] | 0.032 to 0.125 (≈ 0.0789 to 0.308 µM) | 0.032 to 0.125 (≈ 0.0789 to 0.308 µM) | 0.032 to 0.125 (≈ 0.0789 to 0.308 µM) | 0.063 to 0.25 (≈ 0.155 to 0.617 µM) | > 300 |
| Cc1c(-c2cnc(N)c(C#N)c2)c(F)cc2c(=O)c(C(=O)O)cn(C3CC3)c12 [Compound 2-18] | 0.016 to 0.063 (≈ 0.0423 to 0.167 µM) | 0.008 to 0.063 (≈ 0.0211 to 0.167 µM) | 0.016 to 0.063 (≈ 0.0423 to 0.167 µM) | 0.032 to 0.063 (≈ 0.0846 to 0.167 µM) |  |
